Data published in PubChem BioAssay (NCI).
Several values for one entry are separate records, joined by “and”; a condition that tells them apart may be missing. Identical values can stand only once.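 Following 48 hours of exposure in 96-well plates, responses at five concentrations were used to interpolate endpoints linearly. GI50 is the concentration that inhibits growth by half. TGI is the concentration that stops growth completely.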

Legend:
Assay in all cases: NCI-60 cell line screen, 48 h
DU-145 prostate = system: DU-145 prostate
HCT-15 colon = system: HCT-15 colon
HL-60(TB) leukemia = system: HL-60(TB) leukemia
IGROV1 ovarian = system: IGROV1 ovarian
MDA-MB-435 = system: MDA-MB-435
NCI-H23 lung = system: NCI-H23 lung
RPMI-8226 leukemia = system: RPMI-8226 leukemia
SK-OV-3 ovarian = system: SK-OV-3 ovarian
UACC-257 melanoma = system: UACC-257 melanoma
EKVX NSCLC = system: EKVX NSCLC

Row | SMILES | TGI (DU-145 prostate) [µM] | TGI (HCT-15 colon) [µM] | TGI (HL-60(TB) leukemia) [µM] | TGI (IGROV1 ovarian) [µM] | TGI (MDA-MB-435) [µM] | TGI (NCI-H23 lung) [µM] | TGI (RPMI-8226 leukemia) [µM] | TGI (SK-OV-3 ovarian) [µM] | TGI (UACC-257 melanoma) | TGI (EKVX NSCLC) [µM] | GI50 (NCI-H23 lung) [µM] | GI50 (RPMI-8226 leukemia) [µM] | GI50 (UACC-257 melanoma) [µM] | GI50 (DU-145 prostate) [µM] | GI50 (HCT-15 colon) [µM] | GI50 (HL-60(TB) leukemia) [µM] | GI50 (IGROV1 ovarian) [µM] | GI50 (MDA-MB-435) [µM] | GI50 (SK-OV-3 ovarian) [µM]
1 | O=C(Nc1ccc(Cl)c(Cl)c1)OCCN1c2ccccc2Sc2ccccc21 | > 10 | > 10 | > 10 | > 10 | > 10 | > 10 | > 10 | > 10 | > 10 µM |  |  |  |  |  |  |  |  |  | 
2 | O=C1c2nc3n(c2C(=O)c2c1nc1n2CCC1)CCC3 |  | 19.2 | > 36.6 | 24.5 | 3.48 | 7.09 | > 100 | 92.2 | 5.6 µM and 5.72 µM | 31.2 | 3.08 | 9.83 | 2.47 |  |  |  |  |  | 
3 | C=CS(=O)(=O)CCN1CC1 | > 10 | > 10 | > 10 | > 10 | > 10 | > 10 | > 10 | > 10 | > 10 µM |  |  |  |  |  |  |  |  |  | 
4 | CC(CCCOC(c1ccccc1)(c1ccccc1)c1ccccc1)OC(=O)Nc1ccccc1 (centres undefined) |  | 27.9 | 31.4 | 30 |  | 21.7 | 42.1 | 27.2 | 28.8 µM |  |  |  |  |  |  |  |  |  | 
5 | O=S(=O)(NCCNc1nccc(-c2c(-c3ccc(F)cc3)nc3sccn23)n1)c1ccccc1 | > 100 | > 100 | 61.7 | 32.7 | > 100 | > 100 | 33 | > 100 | 72.8 µM |  | 16.2 | 3.79 | 10.6 | 5.14 | 3.07 | 16.9 | 2.99 | 2.56 | 10.8
6 | COc1ccc(OC)c(Nc2nc(-c3c(C)nc4sccn34)cs2)c1 | > 100 | > 100 | > 100 | > 100 | > 100 | > 100 | > 100 | > 100 | > 100 µM |  | 51.1 | 8.91 | > 100 | > 100 | > 100 | > 100 | 23.2 | > 100 | 24.6
7 | COC(=O)CCC(=O)NC1C2CC3CC(C2)CC1C3 (centres undefined) |  | > 100 | > 100 | > 100 |  | > 100 | > 100 | > 100 | > 100 µM | > 100 |  |  |  |  |  |  |  |  | 
8 | O=[N+]([O-])c1ccc(Cl)cc1C1SCc2nc3ccccc3n21 (centres undefined) |  | > 100 | > 100 | > 100 |  | > 100 | > 100 | > 100 | > 100 µM | > 100 |  |  |  |  |  |  |  |  | 
9 | Cc1ncc([N+](=O)[O-])n1CCNC(=O)Cn1c([N+](=O)[O-])cnc1C | > 100 | > 100 | > 100 | > 100 | > 100 | > 100 |  | > 100 | > 100 µM |  |  |  |  |  |  |  |  |  | 
10 | COc1cc(Cl)cc(-c2nn(-c3cccc(NC(=O)Nc4ccc(Cl)c(C(F)(F)F)c4)c3)cc2-c2ccncc2)c1 | 14 | 2.4 | 5.53 | 29.1 | 4.36 | 6.23 | 2.07 | 9.85 | 4.93 µM |  | 1.36 | 0.402 | 1.89 | 1.86 | 0.493 | 1.68 | 3.2 | 1.76 | 3.15
11 | CCOC(OC1=C(C#N)CCCC1)C(C)[Se]c1ccccc1 (centres undefined) |  | > 100 | 49.4 | > 100 |  | 39.4 | 84 | > 100 | > 100 µM | > 100 |  |  |  |  |  |  |  |  | 
12 | CC(=O)C1=CCC2c3[nH]c4ccccc4c3CCN2C1 (centres undefined) |  | > 100 | > 100 | > 100 |  | > 100 |  | 75.6 | > 100 µM | > 100 |  |  |  |  |  |  |  |  | 
13 | CN(C)C(=S)/N=c1\ss/c(=N\S(=O)(=O)c2ccccc2)n1N(C)C |  | > 100 | > 100 | > 100 |  |  | > 100 | > 100 | > 100 µM | > 100 |  |  |  |  |  |  |  |  | 
14 | Cc1cc2c(C)n(Cc3ccc(Cl)cc3Cl)nc2c(C(=O)O)c1C |  | > 100 | > 100 | > 100 |  | > 100 | > 100 | > 100 | > 100 µM | > 100 |  |  |  |  |  |  |  |  | 
15 | O=C(Nc1ccn(CCI)c(=O)n1)c1ccccc1 |  | > 100 | > 100 | > 100 |  |  | > 100 | > 100 | > 100 µM | > 100 |  |  |  |  |  |  |  |  | 
16 | O=C(NO)c1ccc(O)c(O)c1 |  | > 100 | 56 | > 100 |  | > 100 | > 100 | > 100 | > 100 µM | > 100 |  |  |  |  |  |  |  |  | 
17 | O=C(O)C1=C(C(=O)Nc2ccc(NC(=O)C3=C(C(=O)O)C4C=CC3C4)cc2)C2C=CC1C2 |  | > 100 | > 100 | > 100 |  | > 100 | > 100 | > 100 | > 100 µM | > 100 |  |  |  |  |  |  |  |  | 
18 | CN1CC(=O)N(C)c2nc[nH]c2C1=O |  | > 100 | > 100 | > 100 |  | > 100 | > 100 | > 100 |  | > 100 |  |  |  |  |  |  |  |  | 
19 | C[C@H]1C(=O)CC[C@]2(C)CCC(C(C)(C)O)CC12O (some centres undefined) |  | > 100 | > 100 | > 100 |  | > 100 | > 100 | > 100 | > 100 µM | > 100 |  |  |  |  |  |  |  |  | 
20 | CCC(=O)N/N=C(\C=C\c1cccc(O)c1)c1sc(Nc2ccc(C)cc2[N+](=O)[O-])nc1C |  | > 100 | > 100 | > 100 |  | 6.72 | > 100 | > 100 | > 100 µM | > 100 |  |  |  |  |  |  |  |  | 
21 | O=C(NS(=O)(=O)c1ccccc1)C(Cc1ccccc1)C(Cc1ccccc1)C(=O)NS(=O)(=O)c1ccccc1 (centres undefined) |  |  | > 100 | > 100 |  | > 100 | > 100 | > 100 | > 100 µM | > 100 |  |  |  |  |  |  |  |  | 
22 | COC1OC2COC(c3ccccc3)OC2C(O)C1Br (centres undefined) |  | > 100 | > 100 | > 100 |  | > 100 | > 100 |  | > 100 µM |  |  |  |  |  |  |  |  |  | 
